Patent publication US20040122026A1, “Imidazolidine compounds” (Millennium Pharmaceuticals, Inc., priority 2002, published 2004)

Biological target: T1, CXCR3 (Homo sapiens, UniProt P49682)
T1 construct: expressed in transfected cells; membrane preparation
T1 sequence (P49682 1-368): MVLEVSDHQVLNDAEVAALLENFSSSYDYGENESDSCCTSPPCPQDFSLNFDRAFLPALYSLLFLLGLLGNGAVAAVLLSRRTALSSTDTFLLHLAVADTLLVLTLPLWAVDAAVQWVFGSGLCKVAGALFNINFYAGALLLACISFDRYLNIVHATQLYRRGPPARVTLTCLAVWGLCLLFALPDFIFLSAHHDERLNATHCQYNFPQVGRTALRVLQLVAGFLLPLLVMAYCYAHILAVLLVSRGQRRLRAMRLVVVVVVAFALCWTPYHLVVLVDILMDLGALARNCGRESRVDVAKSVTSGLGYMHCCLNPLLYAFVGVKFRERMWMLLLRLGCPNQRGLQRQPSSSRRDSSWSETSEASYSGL
Assay: CXCR3/IP-10 radioligand binding (125I-IP-10 competition on CXCR3.L1/2 cell membranes)
Conditions: test compound 10 μmol/L, 125I-labeled IP-10 binding to CXCR3.L1/2 transfectant cell membranes
Description: The activity of the compounds of the present invention can be assessed using a suitable assay, such as a receptor binding assay, a chemotaxis assay, an extracellular acidification assay or a calcium flux assay (see, for example, Hesselgesser et al., J. Biol. Chem., 273(25): 15687-15692 (1998) and WO 98/02151). For example, as described herein, small organic molecule antagonists of CXCR3/IP-10 binding have been identified utilizing cells engineered to express recombinant human CXCR3 (CXCR3.L1/2) and which bind ^125I-IP-10 and chemotax in response to IP-10, Mig, or I-TAC. Specifically, a high through-put receptor binding assay, which monitors ^125I-IP-10 biding to CXCR3.L1/2 cell membranes, was used to identify small molecule antagonists. Binding assays can be performed using other ligands of CXCR3, such as, Mig, and/or I-TAC.
CXCR3/IP-10 Radioligand Binding:
CXCR3.L1/2 Membrane Preparation:
CXCR3.L1/2 cells were pelleted by centrifugation and stored at −80° C. The cells were lysed by thawing and resuspending at about 1.5×10^7 cells/mL in a hypotonic buffer (5 mmol/L HEPES (pH 7.2), 2 mmol/L EDTA, 10 μg/mL each leupeptin, aprotinin, and chymostatin, and 100 μg/mL PMSF (all from Sigma, St. Louis)). Nuclei and cellular debris are removed by centrifugation ([…], at 4° C.) for 10 min. The supernatant was transferred to chilled centrifuge tubes (Nalge, Rochester, N.Y.) and the membrane fraction was recovered by centrifugation (25,000 g at 4° C.) for 45 min. The membrane pellet was resuspended in freezing buffer (10 mmol/L HEPES (pH 7.2), 300 mmol/L Sucrose, 5 μg/mL each of leupeptin, aprotinin, and chymostatin, and 10 μg/mL PMSF). The total protein concentration was determined using a coomassie blue staining protein concentration assay kit (BioRad). The membrane preparations are aliquoted and stored at −80° C. until time of use.
CXCR3/IP-10 binding was performed in 96-well polypropylene plates (Costar) in a final volume of 0.1 mL of HBB buffer (50 mmol/L Hepes pH 7.4, 1 mmol/L CaCl2, 5 mmol/L MgCl2, 0.02% sodium azide, 0.5% BSA (bovine serum albumin)), containing 1 to 5 μg CXCR3.L1/2 transfectant cell membrane protein and 0.05 to 0.2 nmol/L of ^125I-labeled IP-10 (NEN, Boston, Mass.). Competition binding experiments were performed by including variable concentrations of unlabeled IP-10 or test compound. Nonspecific binding was determined following the addition of a 250 nmol/L unlabelled IP-10. Samples were incubated for 60 min at room temperature, and bound and free tracer (^125I-labeled IP-10) were separated by filtration through 96-well GF/B filterplates presoaked in 0.3% polyethyleneimine. The filters were washed in HBB further supplemented with 0.5 mol/L NaCl, dried, and the amount of bound radioactivity determined by liquid scintillation counting. The competition is presented as the percent specific binding as calculated by 100×[(S−B)/(T−B)], where S is the radioactivity bound for each sample, B is background binding, and T is total bound in the absence of competitors. Duplicates were used throughout the experiments.

| inhibition at 10 µM (results Table 5) [%] | Compound | inhibition at 10 µM (results Table 6) [%] | other results |
| --- | --- | --- | --- |
| – | CCCNCc1cccc(N(CC)C(=O)CCN2CCN(Cc3cc(C)cc(C)c3)C2=C(C#N)C#N)c1 [Compound 21, N-Ethyl-N-[3-(propylaminomethyl)phenyl]-3-[3-(3,5-dimethylbenzyl)-2-dicyanomethylideneimidazolidin-1-yl]propionamide] | 71 | – |
| – | N-Isopropyl-N-[3-(piperidinomethyl)phenyl]-3-[3-(1-naphthalenylmethyl)-2-dicyanomethylidene imidazolidin-1-yl]propionamide [Compound 16] | – | % inhibition at 10 μmol/L (results Table 6): 95% |
| 95 | Cc1cc(C)cc(CN2CCN(CCC(=O)N(Cc3ccccc3)c3cccc(CN4CCCCC4)c3)C2=C(C#N)C#N)c1 [Compound 5, N-Benzyl-N-[3-(piperidinomethyl)phenyl]-3-[3-(3,5-dimethylbenzyl)-2-dicyanomethylideneimidazolidin-1-yl]propionamide] | – | – |
| 83 | Cc1cc(C)cc(CN2CCN(CCC(=O)N(CC(=O)O)c3cccc(CN4CCCCC4)c3)C2=C(C#N)C#N)c1 [Compound 9, N-Carboxymethyl-N-[3-(piperidinomethyl)phenyl]-3-[3-(3,5-dimethylbenzyl)-2-dicyanomethylideneimidazolidin-1-yl]propionamide] | – | – |
| – | CCCN(C(=O)CCN1CCN(Cc2cc(Cl)cc(Cl)c2)C1=C(C#N)C#N)c1cccc(CN2CCCCC2)c1C [Compound 20, N-Propyl-N-[2-methyl-3-(piperidinomethyl)phenyl]-3-[3-(3,5-dichlorobenzyl)-2-dicyanomethylideneimidazolidin-1-yl]propionamide] | 68 | – |
